Experiment: Fluorescence spectra, absorbance and quantum yield (spectrofluorometer, integration sphere)
Type: physicochemical
Settings: CFD dyes
Procedure: Fluorescence spectra were recorded by a Horiba FluoroMax-4 spectrofluorometer. All polymer and small molecule samples were measured at a concentration of 2% w/w in 1,4-dioxane or DI water and a slit size of 1 nm by 1 nm unless otherwise specified. Quantum yields were also determined on the same spectrofluorometer by using a Quantum-φ integration sphere at the same concentration and slit size with the blank solvent as the reference. ^1H-NMR, ^13C-NMR were performed on a JNM ECS 300 spectrometer using DMSO-d6 or D2O as solvents. Attenuated total reflection Fourier transform infrared (ATR-FTIR) spectra were collected with a Bruker V70 spectrometer using BPLP films. A Shimadzu HPLC-MS system with a Phenomenex Kinetex 2.6u XB-C18 100 mm×2.9 mm column, a SPD M20A PDA detector and a RF-20AXS fluorescence detector (Ex. 360 nm and Em. 430 nm) was used to characterize the structures of fluorophores as well. The mobile phase was a gradient of DI water and acetonitrile with 0-6 min 2% acetonitrile, 6-12 min 2%-30% acetonitrile, and 12-15 min 2% acetonitrile. The flow rate was 0.15 ml/min. Electrospray ionization mass spectroscopy (ESI-MS) was performed with a positive voltage of 4.5 kV and negative mode voltage −4.0 kV and a CDL temperature of 200° C. The analysis of the degradation products of BPLPs were conducted by immersing BPLPs in 1M K2CO3 solution at 37° C. for 24 hours. After degradation, the solutions were neutralized by 1N HCl solution to pH 7 and characterized by HPLC-MS as described above.
Fluorescence spectra were recorded by a Horiba FluoroMax-4 spectrofluorometer. All samples were measured at a concentration corresponding to an optical density of 0.1 in water and a slit size of 1 nm by 1 nm unless specified. Quantum yields were also determined on same spectrofluorometer by using a Quantum-φ integration sphere at samples' maximum excitation wavelength and at an increment of 0.3 nm. Photostability studies were done by continuously exciting samples at their maximum excitation wavelength and monitoring at the maximum emission wavelength.
Fluorescence spectra were recorded on a Horiba FluoroMax-4 spectrofluorometer (Horiba Scientific, Edison N.J.). All polymer and samples were characterized at a concentration of 2 wt % in 1,4-dioxane and a slit size of 1 nm by 1 nm unless otherwise specified. The fluorescence properties of small molecule dyes were also measure in 2 wt % DI water solutions at same conditions as polymer solutions. BPLPs were also degraded in 1M K2CO3 solution at 37° C. for 24 hours and then neutralized with 1N HCl solution to pH7. The resulting degradation solutions were subject to further PL characterizations. Quantum yields were also determined on the same spectrofluorometer by using a Quantum-φ integration sphere (Horiba Scientific, Edison N.J.) at the same concentration and slit size with the blank solvent as the reference. Photostability of small molecules and polymers were determined by monitoring the emission intensity decay at their max. Excitation and emission wavelengths over 3 hours of continuous lumination in the spectrofluorometer.
Absorbance Spectra were recorded on Tecan Infinite M200 Pro UV-vis spectroscopy, and fluorescence spectra were recorded on Horiba FluoroMax-4 fluorospectroscopy at concentrations below 0.1 O.D. unless otherwise indicated. Quantum Yields were measured on the Quantum φ Integrating Sphere accessory to the FluoroMax-4, while lifetime measurements were determined through the Time-Correlation Single Photon Counting (TCSPC) accessory to the FluroMax-4. TCSPC was utilized in conjunction with NanoLED pulsed diode light source with peak excitation wavelength at 352 nm and at 10,000 counts peak preset. Emission was collected at the fluorescence λmax, unless otherwise indicated. For all pH-dependence experiments, sample pH was adjusted with sulfuric acid or sodium hydroxide. For all chloride-dependent quenching experiments, magnesium chloride hexahydrate (Sigma Aldrich) was used.

SMILES	Shifting (emission shifting with excitation wavelength)
NCCN1C(=O)C=C(C(=O)O)CC1=O [CA-EDA]	Yes
O=C(O)CN1C(=O)C=C(C(=O)O)CC1=O [CA-Gly]	Yes

Same assay, conditions: Table III

SMILES	Φ (quantum yield)	λem (maximum emission wavelength)	λex (maximum excitation wavelength)	ϵ (extinction coefficiency)
CC1(C)Sc2cc(C(=O)O)cc(=O)n2C1C(=O)O (stereo not shown) [CA-Penicillamine]	80.6%	432 nm	369 nm	3180 M⁻¹ cm⁻¹
NCCCCCCN1C(=O)C=C(C(=O)O)CC1=O [CA-Hexamethylenediamine]	11.5%	426 nm	357 nm	9.4 M⁻¹ cm⁻¹
CCCCCCCN1C(=O)C=C(C(=O)O)CC1=O [CA-Heptylamine]	13.5%	424 nm	356 nm	4.7 M⁻¹ cm⁻¹
CC(C)C(C(=O)O)N1C(=O)C=C(C(=O)O)CC1=O (stereo not shown) [CA-Valine]	17.5%	428 nm	361 nm	5.3 M⁻¹ cm⁻¹
O=C(O)C1=CC(=O)N(C(Cc2ccccc2)C(=O)O)C(=O)C1 (stereo not shown) [CA-Phenylalanine]	12.7%	423 nm	358 nm	7.8 M⁻¹ cm⁻¹
O=C(O)C1CC(=O)N(C(CS)C(=O)O)C(=O)C1 (stereo not shown) [TCA-Cysteine]	54.2%	431 nm	366 nm	11.6 M⁻¹ cm⁻¹
CSCCC(C(=O)O)N1C(=O)C=C(C(=O)O)CC1=O (stereo not shown) [CA-Methionine]	10.5%	424 nm	362 nm	5.3 M⁻¹ cm⁻¹
CC(CC(=O)O)N1C(=O)C=C(C(=O)O)CC1=O (stereo not shown) [CA-3-Aminobutanoic Acid]	8.8%	430 nm	356 nm	6.3 M⁻¹ cm⁻¹
NC(CSSCC(C(=O)O)N1C(=O)C=C(C(=O)O)CC1=O)C(=O)O (stereo not shown) [CA-Cystine]	15%	430 nm	367 nm	11.6 M⁻¹ cm⁻¹
O=C(O)c1cc(=O)n2c(c1)sc1ccccc12 [CA-2-Aminothiolphenol]	98.5%	439 nm	396 nm	877.8 M⁻¹ cm⁻¹
O=C(O)C1=CC(=O)N(c2ccc(S)cc2)C(=O)C1 [CA-4-Aminothiolphenol]	14.1%	437 nm	396 nm	19.6 M⁻¹ cm⁻¹
O=C(O)c1cc2n(c(=O)c1)C(C(=O)O)CCS2 (stereo not shown) [CA-Homocysteine]	70.8%	445 nm	375 nm	109.2 M⁻¹ cm⁻¹
N=C(N)NCCCC(C(=O)O)N1C(=O)C=C(C(=O)O)CC1=O (stereo not shown) [CA-Arginine]	15.5%	451 nm	382 nm	11.6 M⁻¹ cm⁻¹
CCC(C)C(C(=O)O)N1C(=O)C=C(C(=O)O)CC1=O (stereo not shown) [CA-Isoleucine]	17.2%	430 nm	357 nm	5.6 M⁻¹ cm⁻¹
O=C(O)C1=CC(=O)N(C(CC2=c3ccccc3=NC2)C(=O)O)C(=O)C1 (stereo not shown) [CA-Tryptophan]	5%	445 nm	386 nm	14.6 M⁻¹ cm⁻¹
NCCN1C(=O)C=C(C(=O)O)CC1=O [CA-EDA]	9.2%	440 nm	377 nm	828.3 M⁻¹ cm⁻¹
O=C(O)CCCN1C(=O)C=C(C(=O)O)CC1=O [CA-γ-Aminobutyric acid]	22.1%	422 nm	355 nm	4.9 M⁻¹ cm⁻¹
O=C(O)C1=CC(=O)N(C(CO)C(=O)O)C(=O)C1 (stereo not shown) [CA-Serine]	4.2%	440 nm	369 nm	437.9 M⁻¹ cm⁻¹
O=C(O)CCC(C(=O)O)N1C(=O)C=C(C(=O)O)CC1=O (stereo not shown) [CA-Glutamic Acid]	9.1%	423 nm	358 nm	5.1 M⁻¹ cm⁻¹
O=C(O)CN1C(=O)C=C(C(=O)O)CC1=O [CA-Gly]	39.0%	434 nm	357 nm	12 M⁻¹ cm⁻¹
NC(=O)CCC(C(=O)O)N1C(=O)C=C(C(=O)O)CC1=O (stereo not shown) [CA-Glutamine]	7.3%	448 nm	383 nm	102.4 M⁻¹ cm⁻¹
Nc1ccc(N2C(=O)C=C(C(=O)O)CC2=O)cc1 [CA-Phenylenediamine]	4.5%	433 nm	360 nm	12.1 M⁻¹ cm⁻¹
CC1Oc2cc(C(=O)O)cc(=O)n2C1C(=O)O (stereo not shown) [CA-Threonine]	78.6%	436 nm	386 nm	418 M⁻¹ cm⁻¹
O=C(O)CC(C(=O)O)N1C(=O)C=C(C(=O)O)CC1=O (stereo not shown) [CA-Aspartic Acid]	19.7%	427 nm	356 nm	6.8 M⁻¹ cm⁻¹
CC(C)CC(C(=O)O)N1C(=O)C=C(C(=O)O)CC1=O (stereo not shown) [CA-Leucine]	8.8%	423 nm	359 nm	6.2 M⁻¹ cm⁻¹
NC(=O)CC(C(=O)O)N1C(=O)C=C(C(=O)O)CC1=O (stereo not shown) [CA-Asparagine]	23.8%	440 nm	378 nm	35.5 M⁻¹ cm⁻¹
NCCCCC(C(=O)O)N1C(=O)C=C(C(=O)O)CC1=O (stereo not shown) [CA-Lysine]	8.6%	431 nm	359 nm	11.4 M⁻¹ cm⁻¹
O=C(O)C1=CC(=O)N(CCO)C(=O)C1 [CA-ethanolamine]	42.1%	419 nm	368 nm	34.6 M⁻¹ cm⁻¹
CC(C(=O)O)N1C(=O)CC(C(=O)O)CC1=O (stereo not shown) [TCA-Alanine]	0.2%	423 nm	355 nm	6.1 M⁻¹ cm⁻¹

Same assay, conditions: representative CFDs, Table I

SMILES	Max. Em. Wavelength	Max. Ex. Wavelength	Quantum Yield
NCCN1C(=O)C=C(C(=O)O)CC1=O [CA-EDA]	440 nm	377 nm	9.2%
O=C(O)CN1C(=O)C=C(C(=O)O)CC1=O [CA-Gly]	434 nm	357 nm	39.0%
